According to US7488738B2, “Aminophenoxyacetic acid derivatives and pharmaceutical composition containing thereof” (Asubio Pharma Co., Ltd., priority 1998, dated 2009):

How the values were obtained:
cells of cerebral cortex = assay: Cytoprotective effect against glutamate induced cell death (MTT); format: cell-based, rats of Wister strain; settings: compound 1 μM added 24 h before 1 mM glutamate, fetal rat cerebral cortex cells, control group = 100%; for viability at 1 µM: read-out: Survival Rate (%) (Compound: 1 μM)
Description: Biological Test 1: Cytoprotective Effect Against Glutamate Induced Cell Death
In accordance with the method of M. P. Mattoson [M. P. Mattoson, Brain Res. Rev., 13, 179 (1988)], brain of 18-days fetus rats of Wister strain were taken out. Then, cells of cerebral cortex (4×10^5 cells/ml) were seeded on poly-L-lysine coated 96 wells flat bottom plate (Sumitomo Bakelite Co., Ltd.) in concentration of 4×10^4 cells/each well. After 48 hours of incubation, 1 μM of test compounds were added, then after further 24 hours, 1 mM of glutamate were further added for inducing the cell injury. 12 hours after adding glutamate, MTT [3-(4,5-dimethylthiazol)-2,5-diphenyltetrazolium bromide] was added and incubated for 6 hours.
After incubation, 200 μl of dimethy sulfoxide was added to each wells, and the amounts of reduced MTT were calorimetrically analyzed by Micro ELISA Reader using 570 nm of main-wavelength and 650 nm of sub-wavelength.
The effect of the test compounds was determined as the survival rate of living cells (%) according to the following equation: Survival rate of living cells (%)=[(test compound group−glutamate treated group)÷(control group−glutamate treated group)]×100
That is, the survival rate of living cells after incubation of the control group was converted to 100%, and the survival data of living cells of the tested compounds was shown in Table II.

[1] = system: rats of slc:Wister strain; assay: Cerebral edema suppressing effect (brain injury by metal screw); format: in vivo; settings: rat, water content of injured hemisphere 6 days after operation
Description: Biological Test 3: Cerebral Edema Suppressing Effect 8-week-old rats of slc:Wister strain were used. Rats were anesthetized by intraperitoneal administration of 50 mg/kg of Nembutal (Trade Name), and then, fixed on brain fixactor. The sterile metal screw (3.75 mm in length/1.0 mm in diameter/0.75 mm in length of screw thread) was plugged in the 1.5 mm right and 0.8 mm rear side of the bregma to press frontparietal cortex organ to cause brain injury. 6 days after the operation, the whole brain was taken out and right cerebral hemisphere (injured side) was isolated. After measurement of the wet weight of the cerebral hemisphere, it was dried at 110° C. for 24 hours on aluminum foil. The dry weight of the cerebral hemisphere was measured, and the water content was calculated by using the following formula: Water content (%)=[(wet weight of hemisphere−dry weight of hemisphere)/wet weight of hemisphere]×100 The test compounds were intravenously administered just after the operation via tail vein of the rats.

[2] = 1 mg/kg intravenously just after operation
[3] = 3 mg/kg intravenously just after operation

For Cc1cc(OC(C)(C)C(=O)N(C)C2CCN(CC(=O)Nc3ccccc3)CC2)c(C)c(C)c1N [Compound 42, 2-(4-Amino-2,3,5-trimethylphenoxy)-2-methyl-N-[1-(2-anilino-2-oxyethyl)-4-piperidinyl]-N-methylpropamide], the “Survival Rate (%) (Compound: 1 μM)” value (cells of cerebral cortex) was 131%, the “Cerebral edema suppressing rate (%)” value [1, 2] was 24.5% and the “Cerebral edema suppressing rate (%)” value [1, 3] was 31.0%.

In the case of Cc1c(C)c(NCC(=O)N(C)C2CCN(CCN3CCOCC3)CC2)c(C)c(C)c1N [Compound 119, 2-(4-Amino-2,3,5,6-tetramethylanilino)-N-methyl-N-{1-[2-(4-morpholinyl)ethyl]-4-piperidinyl}acetamide], the viability at 1 µM (cells of cerebral cortex) is reported as 115% and the “Cerebral edema suppressing rate (%)” value [1, 2] is reported as 21.6%.

For Cc1cc(OCC(=O)NC2CCN(CC(=O)N(C)c3ccccc3)CC2)c(C)c(C)c1N [Compound 108], the “Cerebral edema suppressing rate (%)” value [1, 3] was 20.3%.

Cc1c(C)c(NCC(=O)N(C)C2CCN(CC(O)c3ccccc3)CC2)c(C)c(C)c1N (stereo not drawn) [Compound 112, 2-(4-Amino-2,3,5,6-tetramethylanilino)-N-[1-(2-hydroxy-2-phenylethyl)-4-piperidinyl]-N-methylacetamide] was tested, and the viability at 1 µM (cells of cerebral cortex) was 76% and the “Cerebral edema suppressing rate (%)” value [1, 3] was 20.7%.

Cc1c(C)c(NCC(=O)N(C)C2CCN(CC3CC3)CC2)c(C)c(C)c1N [Compound 113] was tested, and the “Survival Rate (%) (Compound: 1 μM)” value (cells of cerebral cortex) was 74% and the “Cerebral edema suppressing rate (%)” value [1, 3] was 20.0%.

In the case of CCCCN1CCC(N(C)C(=O)CNc2c(C)cc(C)c(N)c2C)CC1 [Compound 132, 2-(3-Amino-2,4,6-trimethylanilino)-N-(1-butyl-4-piperidinyl)-N-methylacetamide], the viability at 1 µM (cells of cerebral cortex) is reported as 60% and the “Cerebral edema suppressing rate (%)” value [1, 2] is reported as 30.4%.

In the case of Cc1cc(OCC(=O)NC2CCN(CC(=O)NC3(c4ccccc4)CC3)CC2)c(C)c(C)c1N [Compound 104, 2-(4-Amino-2,3,5-trimethylphenoxy)-N-[1-(2-(1-phenylcyclopropyl)amino-2-oxyethyl)-4-piperidinyl]acetamide], the “Survival Rate (%) (Compound: 1 μM)” value (cells of cerebral cortex) is reported as 117% and the “Cerebral edema suppressing rate (%)” value [1, 3] is reported as 18.9%.

Cc1cc(C)c(NCC(=O)N(C)C2CCN(C(=O)c3cccc(C(F)(F)F)c3)CC2)c(C)c1N [Compound 134, 2-(3-Amino-2,4,6-trimethylanilino)-N-methyl-N-[1-(3-trifluoromethylbenzoyl)-4-piperidinyl]acetamide] was tested, and the viability at 1 µM (cells of cerebral cortex) was 79%, the “Cerebral edema suppressing rate (%)” value [1, 2] was 27.9% and the “Cerebral edema suppressing rate (%)” value [1, 3] was 35.0%.

For Cc1cc(OCC(=O)N(C)C2CCN(CC(=O)N(C)c3ccccc3)CC2)c(C)c(C)c1N [Compound 105, 2-(4-Amino-2,3,5-trimethylphenoxy)-N-methyl-N-[1-(2-(N-methylanilino)-2-oxyethyl)-4-piperidinyl]acetamide], the “Survival Rate (%) (Compound: 1 μM)” value (cells of cerebral cortex) was 86% and the “Cerebral edema suppressing rate (%)” value [1, 3] was 23.2%.

With CCN(C(=O)C(C)Oc1cc(C)c(N)c(C)c1C)C1CCN(C/C=C/c2ccccc2)CC1 (stereo not drawn) [Compound 77, 2-(4-Amino-2,3,5-trimethylphenoxy)-N-ethyl-N-[1-(3-phenyl-2-(E)-propenyl)-4-piperidinyl]propamide] the “Survival Rate (%) (Compound: 1 μM)” value (cells of cerebral cortex) was 111%.

For Cc1cc(OCC(=O)N(C)C2CCN(CC(O)COc3ccccc3)CC2)c(C)c(C)c1N (stereo not drawn) [Compound 65, 2-(4-Amino-2,3,5-trimethylphenoxy)-N-methyl-N-[1-(2-hydroxy-3-phenoxy)propyl-4-piperidinyl]acetamide], the “Survival Rate (%) (Compound: 1 μM)” value (cells of cerebral cortex) was 73%.

For Cc1cc(OCC(=O)N(C)C2CCN(CC(=O)N[C@@H]3C[C@H]3c3ccccc3)CC2)c(C)c(C)c1N (relative stereo) [Compound 66], the “Survival Rate (%) (Compound: 1 μM)” value (cells of cerebral cortex) was 60%.

For CCN(C(=O)C(C)Oc1cc(C)c(N)c(C)c1C)C1CCN(CC(=O)Nc2ccccc2)CC1 (stereo not drawn) [Compound 75, 2-(4-Amino-2,3,5-trimethylphenoxy)-N-[1-(2-anilino-2-oxyethyl)-4-piperidinyl]-N-ethylpropamide], the “Survival Rate (%) (Compound: 1 μM)” value (cells of cerebral cortex) was 96%.

In the case of CCN(C(=O)COc1cc(C)c(N)c(C)c1C)C1CCN(CC(=O)Nc2ccccc2)CC1 [Compound 71, 2-(4-Amino-2,3,5-trimethylphenoxy)-N-[1-(2-anilino-2-oxyethyl)-4-piperidinyl]-N-ethylacetamide], the “Survival Rate (%) (Compound: 1 μM)” value (cells of cerebral cortex) is reported as 89%.
